Test results from paper PMC6308944, “Anti-Candida albicans Activity of Thiazolylhydrazone Derivatives in Invertebrate and Murine Models” (Journal of Fungi, 2018).
Values after ≈ are worked out from the molar mass of the structure shown.

How the values were obtained:
C. albicans (CAN14) = experiment: MIC, broth microdilution (CLSI M27-A3), reference isolate; conditions: Candida albicans
[1] = test system: Candida parapsilosis isolates; experiment: MIC, broth microdilution, clinical isolates
[2] = test system: C. tropicalis (ATCC13803); experiment: MIC, broth microdilution (CLSI M27-A3), reference isolate; conditions: Candida tropicalis
C. albicans (DAY-185) = experiment: as above; conditions: Candida albicans, 48 h
[3] = test system: Candida albicans clinical isolates; experiment: MIC, broth microdilution, clinical isolates
[4] = test system: Candida glabrata clinical isolates; experiment: MIC, broth microdilution, clinical isolates
C. krusei (ATCC6258) = experiment: MIC, broth microdilution (CLSI M27-A3), reference isolate; conditions: Pichia kudriavzevii
C. glabrata (ATCC90030) = experiment: as above; conditions: Nakaseomyces glabratus
[5] = test system: Cryptococcus neoformans clinical isolates; experiment: MIC, broth microdilution, clinical isolates
C. neoformans (H99) = experiment: MIC, broth microdilution (CLSI M27-A3), reference isolate; conditions: Cryptococcus neoformans
C. dublinensis (MYA-646) = experiment: as above; conditions: Candida dubliniensis
[6] = test system: C. parapsilosis (ATCC22019); experiment: as above; conditions: Lodderomyces parapsilosis

`C[C@@H]1[C@H](O)[C@@H](C)/C=C/C=C/C=C/C=C/C=C/C=C/C=C/[C@H](O[C@@H]2O[C@H](C)[C@@H](O)[C@H](N)[C@@H]2O)C[C@@H]2O[C@](O)(C[C@@H](O)C[C@@H](O)[C@H](O)CC[C@@H](O)C[C@@H](O)CC(=O)O[C@H]1C)C[C@H](O)[C@H]2C(=O)O` [Amphotericin B] was tested, and the MIC (C. albicans (CAN14)) was 1 µg/mL (≈ 1.08 µM), the “MIC90” value ([1]; C. parapsilosis isolates) was 0.5 µg/mL (≈ 0.541 µM) and the MIC50 ([1]; Lodderomyces parapsilosis) was 0.25 µg/mL (≈ 0.271 µM). The MIC90 ([1]; Lodderomyces parapsilosis) was 0.5 µg/mL (≈ 0.541 µM), the MIC ([1]; Lodderomyces parapsilosis, C. parapsilosis isolate 6901) was 0.5 µg/mL (≈ 0.541 µM) and the MIC ([1]; Lodderomyces parapsilosis, C. parapsilosis isolate 6917) was 0.25 µg/mL (≈ 0.271 µM). For the same compound, the MIC ([1]; Lodderomyces parapsilosis, C. parapsilosis isolate 6933) was 0.5 µg/mL (≈ 0.541 µM), the MIC ([1]; Lodderomyces parapsilosis, C. parapsilosis isolate 7449) was 0.5 µg/mL (≈ 0.541 µM) and the MIC ([1]; Lodderomyces parapsilosis, C. parapsilosis isolate 7585) was 0.25 µg/mL (≈ 0.271 µM). For the same compound, the MIC ([1]; Lodderomyces parapsilosis, C. parapsilosis isolate 7652) was 0.25 µg/mL (≈ 0.271 µM), the MIC ([1]; Lodderomyces parapsilosis, C. parapsilosis isolate 7839) was 0.5 µg/mL (≈ 0.541 µM) and the MIC ([1]; Lodderomyces parapsilosis, C. parapsilosis isolate 7970A) was 0.25 µg/mL (≈ 0.271 µM). The MIC ([1]; Lodderomyces parapsilosis, C. parapsilosis isolate 8044) was 0.5 µg/mL (≈ 0.541 µM), the MIC ([1]; Lodderomyces parapsilosis, C. parapsilosis isolate 8662) was 0.25 µg/mL (≈ 0.271 µM) and the MIC [2] was 4 µg/mL (≈ 4.33 µM). The MIC (C. albicans (DAY-185)) was 1 µg/mL (≈ 1.08 µM), the MIC50 ([3]; Candida albicans) was 0.25 µg/mL (≈ 0.271 µM) and the MIC90 ([3]; Candida albicans) was 0.25 µg/mL (≈ 0.271 µM). The MIC ([3]; Candida albicans, C. albicans clinical isolate 1) was 0.25 µg/mL (≈ 0.271 µM), the MIC ([3]; Candida albicans, C. albicans clinical isolate 02A) was 0.25 µg/mL (≈ 0.271 µM) and the MIC ([3]; Candida albicans, C. albicans clinical isolate 02B) was 0.25 µg/mL (≈ 0.271 µM). The MIC ([3]; Candida albicans, C. albicans clinical isolate 6) was 0.5 µg/mL (≈ 0.541 µM), the MIC ([3]; Candida albicans, C. albicans clinical isolate 7) was 0.125 µg/mL (≈ 0.135 µM) and the MIC ([3]; Candida albicans, C. albicans clinical isolate 9) was 0.25 µg/mL (≈ 0.271 µM). It also gave an MIC ([3]; Candida albicans, C. albicans clinical isolate 10) of 0.25 µg/mL (≈ 0.271 µM), an MIC ([3]; Candida albicans, C. albicans clinical isolate 11) of 0.125 µg/mL (≈ 0.135 µM) and an MIC ([3]; Candida albicans, C. albicans clinical isolate 13) of 0.125 µg/mL (≈ 0.135 µM). The “MIC90” value ([3]; nine C. albicans clinical isolates) was 0.25 µg/mL (≈ 0.271 µM), the MIC50 ([4]; Nakaseomyces glabratus) was 0.5 µg/mL (≈ 0.541 µM) and the MIC90 ([4]; Nakaseomyces glabratus) was 1 µg/mL (≈ 1.08 µM). The MIC ([4]; Nakaseomyces glabratus, C. glabrata clinical isolate 6922) was 0.5 µg/mL (≈ 0.541 µM), the MIC ([4]; Nakaseomyces glabratus, C. glabrata clinical isolate 6927) was 1 µg/mL (≈ 1.08 µM) and the MIC ([4]; Nakaseomyces glabratus, C. glabrata clinical isolate 6931) was 0.5 µg/mL (≈ 0.541 µM). It also gave an MIC ([4]; Nakaseomyces glabratus, C. glabrata clinical isolate 6932) of 0.5 µg/mL (≈ 0.541 µM), an MIC ([4]; Nakaseomyces glabratus, C. glabrata clinical isolate 6943) of 1 µg/mL (≈ 1.08 µM) and an MIC ([4]; Nakaseomyces glabratus, C. glabrata clinical isolate 7110) of 0.5 µg/mL (≈ 0.541 µM). It also gave an MIC ([4]; Nakaseomyces glabratus, C. glabrata clinical isolate 7221) of 0.5 µg/mL (≈ 0.541 µM), an MIC ([4]; Nakaseomyces glabratus, C. glabrata clinical isolate 7255) of 1 µg/mL (≈ 1.08 µM) and an MIC ([4]; Nakaseomyces glabratus, C. glabrata clinical isolate 7815) of 0.5 µg/mL (≈ 0.541 µM). For the same compound, the MIC ([4]; Nakaseomyces glabratus, C. glabrata clinical isolate 7871) was 1 µg/mL (≈ 1.08 µM), the “susceptibility of isolates according to CLSI M27-S4” value ([4]; all C. glabrata clinical isolates) was “sensitive” and the MIC (C. krusei (ATCC6258)) was 8 µg/mL (≈ 8.66 µM). The MIC (C. glabrata (ATCC90030)) was 2 µg/mL (≈ 2.16 µM), the MIC50 [5] was 0.125 µg/mL (≈ 0.135 µM) and the MIC90 [5] was 0.25 µg/mL (≈ 0.271 µM). It also gave an MIC ([5]; C. neoformans clinical isolate 27JF) of 0.25 µg/mL (≈ 0.271 µM), an MIC ([5]; C. neoformans clinical isolate 28JF) of 0.125 µg/mL (≈ 0.135 µM) and an MIC ([5]; C. neoformans clinical isolate 93) of 0.25 µg/mL (≈ 0.271 µM). For the same compound, the MIC ([5]; C. neoformans clinical isolate 94) was 0.25 µg/mL (≈ 0.271 µM), the MIC ([5]; C. neoformans clinical isolate 646B) was 0.125 µg/mL (≈ 0.135 µM) and the MIC ([5]; C. neoformans clinical isolate 975) was 0.125 µg/mL (≈ 0.135 µM). It also gave an MIC ([5]; C. neoformans clinical isolate 9220) of 0.125 µg/mL (≈ 0.135 µM), an MIC ([5]; C. neoformans clinical isolate 9273) of 0.125 µg/mL (≈ 0.135 µM) and an MIC ([5]; C. neoformans clinical isolate 10131) of 0.125 µg/mL (≈ 0.135 µM). For the same compound, the MIC ([5]; C. neoformans clinical isolate 10211) was 0.125 µg/mL (≈ 0.135 µM), the MIC ([5]; C. neoformans clinical isolate 10264) was 0.125 µg/mL (≈ 0.135 µM) and the MIC ([5]; C. neoformans clinical isolate 10335) was 0.125 µg/mL (≈ 0.135 µM). It also gave an MIC ([5]; C. neoformans clinical isolate 10379) of 0.125 µg/mL (≈ 0.135 µM), an MIC ([5]; C. neoformans clinical isolate 41292) of 0.125 µg/mL (≈ 0.135 µM) and an MIC ([5]; C. neoformans clinical isolate 41295) of 0.125 µg/mL (≈ 0.135 µM). The MIC ([5]; C. neoformans clinical isolate 41296) was 1 µg/mL (≈ 1.08 µM), the MIC ([5]; C. neoformans clinical isolate 41297) was 0.125 µg/mL (≈ 0.135 µM) and the MIC ([5]; C. neoformans clinical isolate 41298) was 0.125 µg/mL (≈ 0.135 µM). For the same compound, the MIC ([5]; C. neoformans clinical isolate 41299) was 0.125 µg/mL (≈ 0.135 µM), the MIC ([5]; C. neoformans clinical isolate 90896) was 0.125 µg/mL (≈ 0.135 µM) and the MIC ([5]; C. neoformans clinical isolate 92868) was 0.25 µg/mL (≈ 0.271 µM). The MIC ([5]; C. neoformans clinical isolate BF113) was 1 µg/mL (≈ 1.08 µM), the MIC ([5]; C. neoformans clinical isolate BF114) was less than 0.0625 µg/mL and the MIC ([5]; C. neoformans clinical isolate C31) was 0.125 µg/mL (≈ 0.135 µM). For the same compound, the MIC ([5]; C. neoformans clinical isolate F10) was 0.25 µg/mL (≈ 0.271 µM), the MIC ([5]; C. neoformans clinical isolate RN01) was 0.125 µg/mL (≈ 0.135 µM) and the MIC ([5]; C. neoformans clinical isolate WP) was 1 µg/mL (≈ 1.08 µM). The MIC (C. neoformans (H99)) was 4 µg/mL (≈ 4.33 µM), the MIC (C. dublinensis (MYA-646)) was 1 µg/mL (≈ 1.08 µM) and the MIC [6] was 2 µg/mL (≈ 2.16 µM).
